Measured values taken from paper PMC11377542, “An artificial intelligence accelerated virtual screening platform for drug discovery” (Nature Communications, 2024).
Several values for one entry are separate records, joined by “and”; a condition that tells them apart may be missing. Equal values may be shown once. Read-outs that look alike come from different tables or passages of the source.

Legend:
KLHDC2 [1] = target: T1, KLHDC2 (Homo sapiens, UniProt Q9Y2U9); test: Octet BioLayer Interferometry competition assay (biotinylated SelK peptide / GST-KLHDC2); type: binding; details: BLI competition, C29 at 0-30 µM, 50 nM GST-KLHDC2
T1 construct: human KLHDC2 (UniProt: Q9Y2U9, amino acid 1–362); made in house; host or cells: HighFive insect cells (baculovirus, pFastBac)
T1 sequence (Q9Y2U9 1-362): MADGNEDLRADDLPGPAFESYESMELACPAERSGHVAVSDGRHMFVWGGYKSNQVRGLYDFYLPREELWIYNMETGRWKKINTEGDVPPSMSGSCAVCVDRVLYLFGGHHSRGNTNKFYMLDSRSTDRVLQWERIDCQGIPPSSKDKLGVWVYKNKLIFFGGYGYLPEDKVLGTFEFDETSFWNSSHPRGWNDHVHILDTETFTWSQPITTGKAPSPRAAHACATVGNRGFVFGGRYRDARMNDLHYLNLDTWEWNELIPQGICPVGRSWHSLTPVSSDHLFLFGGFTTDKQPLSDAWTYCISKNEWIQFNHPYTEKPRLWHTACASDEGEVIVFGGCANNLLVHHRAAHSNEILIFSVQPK
Procedure: Octet BioLayer interferometry competition assay monitoring the ability of C29 to interfere with the binding between the biotinylated 12 aa SelK peptide and GST-KLHDC2 was monitored using the Octet Red 96 (ForteBio, Pall Life Sciences) following the manufacturer’s procedures. The reaction was carried out in black 96 well plates maintained at 30 °C. The reaction volume was 200 μL in each well. The Octet buffer used throughout the experiment contained 20 mM Tris-HCl, 200 mM NaCl, 5 mM DTT and 0.1% BSA, pH 8.0. The Loading buffer contained the Octet buffer and biotinylated 12 aa SelK peptide, at a final concentration of 200 nM. […] The binding of the analyte GST-KLHDC2 in the presence or absence of the C29, to the optical probes was measured simultaneously using instrumental defaults for 225 sec as the probes were then incubated in Association buffer. The dissociation was measured for 600 sec while the probes were incubated in Octet buffer. […] The data were analyzed by the Octet data analysis software version 9.0.. […] The IC50 value was calculated using Prism 8 (GraphPad) from the nonlinear regression curve fit of the response values vs. log competitor concentration.
Supplementary Fig. 14 | BioLayer Interferometry competition assay of compound 29. […] The binding of the analyte GST-KLHDC2 in the presence or absence of the C29, to the loaded optical probes was measured in the association buffer. […]

KLHDC2 [2] = target: T1, KLHDC2; test: AlphaLISA competition assay (displacement of SelK C-end degron peptide from GST-KLHDC2); type: binding; details: IC50, competition with biotinylated 12 aa SelK degron peptide; 12-point titration, n = 3 technical replicates
From the text: We took the top-ranked 1000 compounds and filtered out compounds with low predicted solubility, unsatisfied hydrogen bonds in the bound conformation, and followed by similarity clustering to reduce the redundancy in ligand structures. A total of 54 molecules that passed the filtering and clustering were manually examined for favorable interactions and geometries in PyMol[34]. Finally, 37 compounds were chosen for chemical synthesis. Out of these, 29 compounds were successfully synthesized (Supplementary Fig. 13) and characterized in an AlphaLISA competition assay, in which each compound was tested for its ability to compete with a diglycine-containing SelK C-end degron peptide for binding KLHDC2. […] This single digit μM IC50 was further confirmed in a competition assay using BioLayer Interferometry (Supplementary Fig. 14).
The kelch repeat domain of human KLHDC2 (UniProt: Q9Y2U9, amino acid 1–362) was subcloned into the pFastBac vector with an N-terminally fused glutathione-S-transferase (GST), and a TEV-cleavage site. A recombinant baculovirus was produced and amplified three times in Sf9 monolayer cells to produce P4. The P4 virus was used to infect HighFive suspension insect cell cultures to produce the recombinant GST-KLHDC2 protein. The cells were harvested 2–3 days post-infection, re-suspended, and lysed in lysis buffer (20 mM Tris, pH 8.0, 200 mM NaCl, 5 mM DTT) in the presence of protease inhibitors (1 μg/ml Leupeptin, 1 μg/ml Pepstatin and 100 μM PMSF) using a microfluidizer. The GST-KLHDC2 protein was isolated from the soluble cell lysate by PierceTM Glutathione Agarose (Thermo Scientific). For AlphaLISA competition assays, the GST-tagged KLHDC2 was further purified by Q Sepharose High-Performance resin (GE Healthcare). The NaCl eluates were subjected to a Superdex-200 size exclusion chromatography column (GE Healthcare). All samples were flash-frozen in liquid nitrogen for storage prior to use. For protein crystallization, the kelch repeat domain of human KLHDC2 (amino acids 22–362) was subcloned into the pET vector with an N-terminally fused His-elongation factor Ts (TSF) and a TEV-cleavage site. The His-TSF-KLHDC2 protein was overexpressed and purified from BL21 (DE3) E. coli cells. Bacterial cells transformed with the pET-based expression plasmid were grown in LB broth to an OD600 of 0.8–1 and induced with 0.5 mM IPTG. Cells were harvested, re-suspended, and lysed in lysis buffer (20 mM Tris, pH 8.0, 200 mM NaCl, 20 mM imidazole) in the presence of protease inhibitors (1 μg mL–1 leupeptin, 1 μg mL–1 pepstatin and 100 μM phenylmethylsulfonyl fluoride) using a microfluidizer. The His-TSF-KLHDC2 protein was isolated from the soluble cell lysate by HisPurTM Ni-NTA Superflow Agarose (Thermo Fisher Scientific, Waltham, Massachusetts). After TEV cleavage of the His-TSF, KLHDC2 was further purified by Mono Q™ 5/50 GL (GE Healthcare, Chicago, Illinois). The NaCl eluates were subjected to Superdex-200 size-exclusion chromatography (GE Healthcare). Native mass spectrometry was used to confirm KLHDC2 in its apo form. The samples were concentrated by ultrafiltration to 10–22 mg mL−1. All samples were flash-frozen in liquid nitrogen for storage prior to use.
AlphaLISA assays for determining and measuring protein-protein interactions were performed using an EnSpire reader (PerkinElmer). GST-tagged KLHDC2 was attached to anti-GST AlphaLISA acceptor beads. Synthetic N-terminal biotinylated 12 aa SelK degron peptide ([Biotin]HLRGSPPPMAGG[C) (Bio-Synthesis, Inc.) was immobilized to streptavidin-coated AlphaLISA donor beads. The donor and acceptor beads were brought into proximity by the interactions between the SelK peptide and KLHDC2. Excitation of the donor beads by a laser beam of 680 nm promotes the formation of singlet oxygen. When an acceptor bead is in close proximity, the singlet oxygen reacts with thioxene derivatives in the acceptor beads and causes the emission of 615 nm photons, which are detected as the binding signal. […]

human NaV1.5 = target: T2, human NaV1.5 (Homo sapiens, UniProt Q14524); test: Whole-cell patch-clamp electrophysiology on human NaV1.5 stably expressed in HEK-293 cells; type: cell-based; details: -80 mV holding potential (inactivated state); mean
T2 construct: expressed in transfected cells
Procedure: (§1) HEK-293 cells stably expressing human NaV1.5 and NaV1.7 were obtained from Dr. Chris Lossin (UC Davis, CA). HEK293 cells stably expressing HERG (hKv11.1) were a gift from Craig January (University of Wisconsin, Madison). Cells were cultured in complete DMEM supplemented with 10% FBS, 1% penicillin/streptomycin, and G418. All manual whole-cell patch-clamp recordings were performed at room temperature (22–24 °C) using an EPC-10 amplifier (HEKA Electronik, Lambrecht/Pfalz, Germany) on cells that were grown to 60–80% confluency, lifted with TrypLE, and plated onto poly-l-lysine–coated coverslips. External bath solution contains (in mM) 160 NaCl, 4.5 KCl, 2 CaCl2, 1 MgCl2, 10 HEPES (pH 7.4 and 305 mOsm) as. Patch pipettes were heat-pulled from soda lime glass (micro-hematocrit tubes, Kimble Chase, Rochester, NY) and had resistances of 2–3 MΩ when filled with an internal solution. […] Inhibition of currents in the resting state was recorded using a holding potential of − 120 mV. Control test currents were monitored for up to 5–10 min to ensure that the amplitude and kinetics of the response were stable. […] The percent reduction of HERG tail current amplitude by the compounds was determined. The percent of a block of tail current amplitude by the drugs was determined and data are shown as mean +/− SD (n = 3–4 per data point).

hNaV1.7 channel = target: T3, hNaV1.7 channel (Homo sapiens, UniProt Q15858); test: Whole-cell patch-clamp electrophysiology on hNaV1.7 stably expressed in HEK-293 cells; type: cell-based; details: for IC50: mean
T3 construct: expressed in transfected cells
From the text: We first clustered the top 100,000 ranked small molecules, then applied filters on the top 1000 cluster representative molecules. A total of 160 molecules that passed the clustering and filtering were examined manually. To ensure the chemical novelty of our selection, we specifically excluded molecules that contain the known arylsulfonamide warhead or structurally resemble antihistamines or beta-receptor blockers. Finally, ten molecules with Tanimoto similarities of less than 0.33 to the known inhibitors of NaV1.7 from the ChEMBL database[43],[44] were selected for synthesis. Of these, nine were successfully synthesized (Supplementary Fig. 16), and their activities were measured using the whole-cell patch-clamp electrophysiology assay on hNaV1.7 channel stably expressed in HEK-293 cells as described in Methods.
HEK-293 cells stably expressing human NaV1.5 and NaV1.7 were obtained from Dr. Chris Lossin (UC Davis, CA). HEK293 cells stably expressing HERG (hKv11.1) were a gift from Craig January (University of Wisconsin, Madison). Cells were cultured in complete DMEM supplemented with 10% FBS, 1% penicillin/streptomycin, and G418. All manual whole-cell patch-clamp recordings were performed at room temperature (22–24 °C) using an EPC-10 amplifier (HEKA Electronik, Lambrecht/Pfalz, Germany) on cells that were grown to 60–80% confluency, lifted with TrypLE, and plated onto poly-l-lysine–coated coverslips. External bath solution contains (in mM) 160 NaCl, 4.5 KCl, 2 CaCl2, 1 MgCl2, 10 HEPES (pH 7.4 and 305 mOsm) as. Patch pipettes were heat-pulled from soda lime glass (micro-hematocrit tubes, Kimble Chase, Rochester, NY) and had resistances of 2–3 MΩ when filled with an internal solution. Patch recordings of NaV1.5 and NaV1.7 channels were done using a cesium fluoride-based internal solution containing (in mM) 10 NaF, 110 CsF, 20 CsCl, 10 HEPES, 2 EGTA, (pH 7.4, 310 mOsm). Recordings of HERG channels were conducted using a potassium fluoride-based internal solution with added ATP (160 mM KF, 2 mM MgCl2, 10 mM EGTA, 10 mM HEPES, 4 mM NaATP, pH = 7.2 and 300–320 mOsm). Data acquisition and analysis were performed with Pulse-PulseFit (HEKA Electronik GmbH, Germany), IgorPro (WaveMetrics, Portland, OR), and Origin 9.0 software (OriginLab Corporation, Northampton, MA). To investigate specifically the inactivated state block of NaV1.7 and NaV1.5, holding potentials were set at the V1/2 of maximal inactivation (− 70 mV and − 80 mV, respectively) before voltage stepping to − 150 mV for 20 msec, and then 0 mV for 50 msec to elicit inward currents. Inhibition of currents in the resting state was recorded using a holding potential of − 120 mV. Control test currents were monitored for up to 5–10 min to ensure that the amplitude and kinetics of the response were stable. Series resistance was compensated to 80–90% and linear leak currents and capacitance artifacts were corrected using a P/4 subtraction method. The pulse interval was 0.1 Hz. For all experiments, stock solutions of the drugs were prepared fresh from 10 mM stocks in DMSO and test solutions prepared in external bath solutions were applied to individual cells into the recording bath. […] The percent reduction of HERG tail current amplitude by the compounds was determined. The percent of a block of tail current amplitude by the drugs was determined and data are shown as mean +/− SD (n = 3–4 per data point).

HERG (hKv11.1) = target: T4, HERG (hKv11.1) (Homo sapiens, UniProt Q12809); test: Whole-cell patch-clamp electrophysiology on HEK293 cells stably expressing HERG, tail current; type: cell-based; details: mean
T4 construct: expressed in transfected cells
Procedure: as §1

T3 sequence (Q15858 whole entry): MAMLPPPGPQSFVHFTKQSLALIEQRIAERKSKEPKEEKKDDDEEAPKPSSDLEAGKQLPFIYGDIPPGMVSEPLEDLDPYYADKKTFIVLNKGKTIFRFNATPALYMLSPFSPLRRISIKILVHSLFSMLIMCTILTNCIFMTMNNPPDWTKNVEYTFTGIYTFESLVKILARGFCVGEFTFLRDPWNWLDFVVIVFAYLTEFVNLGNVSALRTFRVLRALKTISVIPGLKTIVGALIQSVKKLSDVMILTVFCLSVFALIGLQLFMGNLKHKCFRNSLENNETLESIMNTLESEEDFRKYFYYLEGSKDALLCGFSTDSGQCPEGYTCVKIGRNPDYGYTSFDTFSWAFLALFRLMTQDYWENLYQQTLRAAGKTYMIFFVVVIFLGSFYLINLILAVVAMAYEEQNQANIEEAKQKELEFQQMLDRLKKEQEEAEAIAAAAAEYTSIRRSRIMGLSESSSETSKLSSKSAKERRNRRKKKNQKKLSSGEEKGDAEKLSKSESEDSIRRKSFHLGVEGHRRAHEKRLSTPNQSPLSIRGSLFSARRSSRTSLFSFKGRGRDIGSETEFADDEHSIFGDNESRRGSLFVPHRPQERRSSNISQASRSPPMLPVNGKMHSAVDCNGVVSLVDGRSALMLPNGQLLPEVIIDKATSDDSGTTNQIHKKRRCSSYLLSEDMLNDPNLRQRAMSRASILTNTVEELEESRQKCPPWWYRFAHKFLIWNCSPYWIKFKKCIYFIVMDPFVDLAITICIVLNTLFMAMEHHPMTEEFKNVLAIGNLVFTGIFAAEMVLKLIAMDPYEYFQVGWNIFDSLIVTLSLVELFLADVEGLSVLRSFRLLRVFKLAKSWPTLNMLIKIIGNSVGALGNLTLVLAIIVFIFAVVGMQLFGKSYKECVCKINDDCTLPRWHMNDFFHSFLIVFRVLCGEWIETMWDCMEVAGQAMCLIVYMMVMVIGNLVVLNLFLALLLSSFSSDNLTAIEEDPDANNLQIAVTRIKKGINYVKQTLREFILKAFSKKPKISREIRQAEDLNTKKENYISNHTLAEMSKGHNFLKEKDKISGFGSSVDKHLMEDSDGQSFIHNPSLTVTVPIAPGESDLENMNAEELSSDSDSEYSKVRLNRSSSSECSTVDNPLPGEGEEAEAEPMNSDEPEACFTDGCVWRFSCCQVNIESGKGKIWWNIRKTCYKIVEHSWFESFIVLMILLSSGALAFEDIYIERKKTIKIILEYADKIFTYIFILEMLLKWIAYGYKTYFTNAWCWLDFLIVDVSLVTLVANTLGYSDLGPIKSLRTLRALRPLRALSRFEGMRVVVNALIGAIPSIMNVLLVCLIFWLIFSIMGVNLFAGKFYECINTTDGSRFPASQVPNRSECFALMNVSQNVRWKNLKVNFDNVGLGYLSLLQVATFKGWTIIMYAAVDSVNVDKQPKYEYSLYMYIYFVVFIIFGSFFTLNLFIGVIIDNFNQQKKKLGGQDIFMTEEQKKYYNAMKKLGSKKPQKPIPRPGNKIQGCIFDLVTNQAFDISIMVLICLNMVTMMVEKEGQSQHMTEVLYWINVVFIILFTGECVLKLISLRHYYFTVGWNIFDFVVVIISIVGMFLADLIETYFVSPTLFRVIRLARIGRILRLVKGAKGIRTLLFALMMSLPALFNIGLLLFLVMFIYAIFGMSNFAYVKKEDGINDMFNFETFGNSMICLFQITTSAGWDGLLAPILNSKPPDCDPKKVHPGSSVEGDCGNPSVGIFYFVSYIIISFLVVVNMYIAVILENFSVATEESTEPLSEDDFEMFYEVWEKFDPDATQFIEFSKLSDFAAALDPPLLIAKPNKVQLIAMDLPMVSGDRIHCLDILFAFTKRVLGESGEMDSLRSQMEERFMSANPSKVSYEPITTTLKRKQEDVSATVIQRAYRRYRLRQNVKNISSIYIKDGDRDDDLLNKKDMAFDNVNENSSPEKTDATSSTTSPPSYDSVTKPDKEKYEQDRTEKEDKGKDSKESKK
T2 sequence (Q14524 whole entry): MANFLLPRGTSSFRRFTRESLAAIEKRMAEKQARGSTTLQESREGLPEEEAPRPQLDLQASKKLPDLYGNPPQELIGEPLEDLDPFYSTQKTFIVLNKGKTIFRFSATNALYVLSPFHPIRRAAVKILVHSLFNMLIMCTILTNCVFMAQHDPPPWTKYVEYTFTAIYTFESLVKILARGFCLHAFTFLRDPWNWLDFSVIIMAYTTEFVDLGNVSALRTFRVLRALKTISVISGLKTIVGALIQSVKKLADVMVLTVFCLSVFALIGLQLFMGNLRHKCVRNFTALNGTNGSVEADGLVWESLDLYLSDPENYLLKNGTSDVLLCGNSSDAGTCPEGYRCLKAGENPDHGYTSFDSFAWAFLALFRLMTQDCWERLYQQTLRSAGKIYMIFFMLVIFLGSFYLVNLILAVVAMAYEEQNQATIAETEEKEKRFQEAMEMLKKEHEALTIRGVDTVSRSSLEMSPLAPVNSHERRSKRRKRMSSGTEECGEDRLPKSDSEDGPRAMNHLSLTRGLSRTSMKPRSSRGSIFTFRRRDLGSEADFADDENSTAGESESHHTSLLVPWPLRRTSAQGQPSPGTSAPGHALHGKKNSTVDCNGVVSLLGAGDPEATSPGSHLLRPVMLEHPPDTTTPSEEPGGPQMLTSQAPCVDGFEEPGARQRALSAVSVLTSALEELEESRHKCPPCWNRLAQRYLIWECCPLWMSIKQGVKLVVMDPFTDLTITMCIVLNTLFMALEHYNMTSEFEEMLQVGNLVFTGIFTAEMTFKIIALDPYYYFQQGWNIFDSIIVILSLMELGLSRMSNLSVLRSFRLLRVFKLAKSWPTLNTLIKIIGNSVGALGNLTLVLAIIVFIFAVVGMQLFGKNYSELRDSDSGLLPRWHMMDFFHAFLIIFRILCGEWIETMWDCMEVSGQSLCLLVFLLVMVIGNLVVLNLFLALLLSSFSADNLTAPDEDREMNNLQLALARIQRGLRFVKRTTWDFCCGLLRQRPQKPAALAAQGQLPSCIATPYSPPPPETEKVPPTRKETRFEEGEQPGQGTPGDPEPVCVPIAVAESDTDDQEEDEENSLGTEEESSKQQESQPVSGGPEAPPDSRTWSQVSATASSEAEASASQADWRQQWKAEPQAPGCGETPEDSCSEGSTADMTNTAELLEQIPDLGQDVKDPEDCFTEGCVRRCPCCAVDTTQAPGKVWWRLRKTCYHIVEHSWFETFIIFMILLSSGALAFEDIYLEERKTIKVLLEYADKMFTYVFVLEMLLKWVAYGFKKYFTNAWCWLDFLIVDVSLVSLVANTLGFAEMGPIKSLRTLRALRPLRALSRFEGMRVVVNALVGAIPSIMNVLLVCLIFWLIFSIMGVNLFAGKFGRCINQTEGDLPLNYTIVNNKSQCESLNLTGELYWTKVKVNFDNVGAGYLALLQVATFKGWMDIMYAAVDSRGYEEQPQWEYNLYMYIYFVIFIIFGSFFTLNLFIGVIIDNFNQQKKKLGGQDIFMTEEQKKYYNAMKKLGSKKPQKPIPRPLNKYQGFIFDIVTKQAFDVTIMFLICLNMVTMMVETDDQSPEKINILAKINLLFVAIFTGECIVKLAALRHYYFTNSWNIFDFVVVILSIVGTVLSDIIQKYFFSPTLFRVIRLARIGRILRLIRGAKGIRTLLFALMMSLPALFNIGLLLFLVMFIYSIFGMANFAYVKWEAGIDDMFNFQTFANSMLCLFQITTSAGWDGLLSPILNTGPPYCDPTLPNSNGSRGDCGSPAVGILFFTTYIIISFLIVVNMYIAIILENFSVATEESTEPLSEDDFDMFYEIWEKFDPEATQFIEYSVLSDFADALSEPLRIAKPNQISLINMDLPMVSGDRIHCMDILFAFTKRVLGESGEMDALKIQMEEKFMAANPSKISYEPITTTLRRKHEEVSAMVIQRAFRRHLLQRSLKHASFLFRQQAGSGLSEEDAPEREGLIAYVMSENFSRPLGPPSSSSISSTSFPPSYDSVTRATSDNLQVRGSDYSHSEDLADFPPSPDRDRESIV
T4 sequence (Q12809 whole entry): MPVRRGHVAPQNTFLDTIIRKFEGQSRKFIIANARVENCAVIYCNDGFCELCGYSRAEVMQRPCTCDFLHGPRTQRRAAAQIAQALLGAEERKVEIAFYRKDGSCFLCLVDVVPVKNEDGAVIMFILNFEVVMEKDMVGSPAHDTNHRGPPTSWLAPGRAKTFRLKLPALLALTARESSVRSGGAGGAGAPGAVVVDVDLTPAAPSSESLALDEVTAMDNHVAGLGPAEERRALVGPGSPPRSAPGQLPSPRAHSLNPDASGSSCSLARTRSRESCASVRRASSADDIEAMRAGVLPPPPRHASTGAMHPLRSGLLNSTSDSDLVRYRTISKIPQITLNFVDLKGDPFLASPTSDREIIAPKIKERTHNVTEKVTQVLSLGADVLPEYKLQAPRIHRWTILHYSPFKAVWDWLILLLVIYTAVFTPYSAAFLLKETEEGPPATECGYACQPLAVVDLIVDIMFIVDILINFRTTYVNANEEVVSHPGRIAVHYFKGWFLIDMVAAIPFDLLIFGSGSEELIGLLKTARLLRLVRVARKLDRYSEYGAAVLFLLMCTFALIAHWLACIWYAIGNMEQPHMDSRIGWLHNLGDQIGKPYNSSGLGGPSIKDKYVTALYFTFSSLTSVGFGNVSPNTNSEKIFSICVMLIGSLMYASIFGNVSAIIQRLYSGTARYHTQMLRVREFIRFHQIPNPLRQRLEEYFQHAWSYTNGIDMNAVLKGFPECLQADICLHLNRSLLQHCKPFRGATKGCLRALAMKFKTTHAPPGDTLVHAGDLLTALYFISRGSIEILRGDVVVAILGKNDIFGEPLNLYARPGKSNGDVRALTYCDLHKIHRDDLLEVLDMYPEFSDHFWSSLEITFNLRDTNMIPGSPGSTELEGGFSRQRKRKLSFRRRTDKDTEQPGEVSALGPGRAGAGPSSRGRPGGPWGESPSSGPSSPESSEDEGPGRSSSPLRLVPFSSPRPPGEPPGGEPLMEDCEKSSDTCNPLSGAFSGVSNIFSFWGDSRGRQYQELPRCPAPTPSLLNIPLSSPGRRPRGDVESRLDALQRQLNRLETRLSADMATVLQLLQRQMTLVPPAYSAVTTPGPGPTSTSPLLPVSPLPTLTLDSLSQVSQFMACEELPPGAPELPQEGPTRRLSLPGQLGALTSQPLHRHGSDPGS

Compound | IC50 (KLHDC2 [1]) | IC50 (KLHDC2 [2]) | IC50 (human NaV1.5) | IC50 (hNaV1.7 channel; NaV1.7 inactivated state, -70 mV holding potential, read-out: inactivated-state IC50) | IC50 (hNaV1.7 channel; NaV1.7 resting state, -120 mV holding potential, read-out: resting state IC50) | selectivity for hNaV1.7 versus hNaV1.5 and hERG channels (hNaV1.7 channel; in words) | state dependence of NaV1.7 inhibition (hNaV1.7 channel; inactivated versus resting state, in words) | IC50 (HERG (hKv11.1))
CC(C)(C)c1ccc(CSCC(=O)NCc2cn(CC(=O)O)nn2)cc1 [Compound C29] | single digit | ~3 µM and 2.9 µM | – | – | – | – | – | –
Cc1cc(C(C)(C)C)ccc1OCC(O)CNCc1cc(C)c(C)s1 (centres unmarked) [Compound Z8739902234, CC=1C=C(CNCC(O)COC=2C=CC(=CC2C)C(C)(C)C)SC1C] | – | – | 5.14 µM | 1.33 µM and 1.3 µM | 13.1 µM | moderate selectivity | state dependent | 6.27 µM
